Structures can show the parent of a compound that is named as a salt.
Each compound was assayed on Plasma TC (assay: in vivo screen designated APCC, plasma total cholesterol in rats on high fat, high cholesterol diet). Details: * dosed at 50 mg/kg; rat; high fat, high cholesterol diet with 0.5% cholic acid; read-out: % Change in Plasma TC Values (mg/dl).
Set-up: species or system male Sprague-Dawley rats
Excerpt: In one in vivo screen designated APCC, male Sprague-Dawley rats (200 to 225 g) were randomly divided into treatment groups and dosed at 4 PM with either vehicle (CMC/Tween) or suspensions of compounds in vehicle. The normal chow diet was then replaced with a high fat, high cholesterol diet with 0.5% cholic acid. The rats consumed this diet ad libitum during the night and were sacrificed at 8 AM to obtain blood samples for cholesterol analysis using standard procedures. Statistical differences between mean cholesterol values for the same vehicle were determined using analysis of variance followed by Fisher's least significant test. Compounds were dosed at 30 mg/kg unless otherwise noted.
Work on CC(C)c1cccc(C(C)C)c1NC(=O)NS(=O)(=O)N(C(C)C)C(C)C [Example 1, N-[2,6-bis(1-methylethyl)phenyl]-N'-[[bis(1-methylethyl)amino]sulfonyl]ure] yielded a change in vivo at 50 mg/kg of -59%. In the case of CC(C)c1cccc(C(C)C)c1NC(=O)NS(=O)(=O)NC(c1ccccc1)c1ccccc1 [Example 2, N-[2,6-bis(1-methylethyl)phenyl]-N'-[[(diphenylmethyl)amino]sulfonyl]urea], the change in vivo at 50 mg/kg is reported as -14%. CCCCN(CCCC)S(=O)(=O)NC(=O)Nc1c(C(C)C)cccc1C(C)C [Example 4, N-[2,6-bis(1-methylethyl)phenyl]-N'-[(dibutylamino)sulfonyl]urea] gave a change in vivo at 50 mg/kg of -66%. With CC(C)c1cccc(C(C)C)c1NC(=O)NS(=O)(=O)Nc1c(C(C)C)cccc1C(C)C [Example 6, N-[2,6-bis(1-methylethyl)phenyl]-N'-[[[2,6-bis(1-methylethyl)phenyl]amino]sulfonyl]urea] the change in vivo at 50 mg/kg was -54%. CC(C)c1cccc(C(C)C)c1NC(=O)NS(=O)(=O)NCC(c1ccccc1)c1ccccc1 [Example 7, N-[2,6-bis(1-methylethyl)phenyl]-N'-[[(2,2-diphenylethyl)amino]sulfonyl]urea] was tested, and the change in vivo at 50 mg/kg was -20%. CC(C)c1cccc(C(C)C)c1NC(=O)NS(=O)(=O)N(Cc1ccccc1)Cc1ccccc1 [Example 9, N-[2,6-bis(1-methylethyl)phenyl]-N'-[(bis(phenylmethyl)amino)sulfonyl]urea] was tested, and the change in vivo at 50 mg/kg was -59%. Work on CC(C)c1cccc(C(C)C)c1NC(=O)NS(=O)(=O)NC1c2ccccc2-c2ccccc21 [Example 10, N-[2,6-bis(1-methylethyl)phenyl]-N'-[(9H-fluoren-9-ylamino)sulfonyl]urea] yielded a change in vivo at 50 mg/kg of -4%. Work on CC(C)c1cccc(C(C)C)c1NC(=O)NS(=O)(=O)N(Cc1ccccc1)C(C)C [Example 11, N-[2,6-bis(1-methylethyl)phenyl]-N'-[[(1-methylethyl)(phenylmethyl)amino]sulfonyl]urea] yielded a change in vivo at 50 mg/kg of -60%. For CCCCCCCCN(CCCCCCCC)S(=O)(=O)NC(=O)Nc1c(C(C)C)cccc1C(C)C [Example 12, N-[2,6-bis(1-methylethyl)phenyl]-N'-[(dioctylamino)sulfonyl]urea], the change in vivo at 50 mg/kg was -41%.

Same assay, conditions: Rattus norvegicus, read-out: % Change in Plasma TC Values (mg/dl)
For CCCCN(CCCC)S(=O)(=O)NC(=O)Nc1c(C(C)C)cccc1C(C)C [Example 43, N-[2,6-bis(1-methylethyl)phenyl]-N'-[(dibutylamino)sulfonyl]urea, monosodium salt], the change in vivo at 30 mg/kg was -68%.

Same assay, conditions: dosed at 30 mg/kg; rat; high fat, high cholesterol diet with 0.5% cholic acid; read-out: % Change in Plasma TC Values (mg/dl)
CC(C)c1cccc(C(C)C)c1NC(=O)NS(=O)(=O)N(c1ccccc1)c1ccccc1 [Example 3] showed a change in vivo at 30 mg/kg of -37%. CC(C)c1cccc(C(C)C)c1NC(=O)NS(=O)(=O)N1CCC(c2ccccc2)CC1 [Example 13, N-[2,6-bis(1-methylethyl)phenyl]-N'-[(4-phenyl-1-piperidinyl)sulfonyl]urea] gave a change in vivo at 30 mg/kg of -67%. With CCCCCCN(CCCCCC)S(=O)(=O)NC(=O)Nc1c(C(C)C)cccc1C(C)C [Example 14] the change in vivo at 30 mg/kg was -77%. CC(C)c1cccc(C(C)C)c1NC(=O)NS(=O)(=O)N(CCCN(C)C)CCCN(C)C [Example 15, N-[[bis[3-(dimethylamino)propyl]amino]sulfonyl]-N'-[2,6-bis(1-methylethyl)phenyl]urea] showed a change in vivo at 30 mg/kg of -30%. CCCCCCNS(=O)(=O)NC(=O)Nc1c(C(C)C)cccc1C(C)C [Example 16, N-[2,6-bis(1-methylethyl)phenyl]-N'-[(hexylamino)sulfonyl]urea] was tested, and the change in vivo at 30 mg/kg was -19%. CC(C)c1cccc(C(C)C)c1NC(=O)NS(=O)(=O)N(CC1CCCO1)CC1CCCO1 (centres unmarked) [Example 17, N-[2,6-bis(1-methylethyl)phenyl]-N'-[[bis[(tetrahydro-2-furanyl)methyl]amino]sulfonyl]urea] was tested, and the change in vivo at 30 mg/kg was -53%. With CCN(CC)S(=O)(=O)NC(=O)Nc1c(C(C)C)cccc1C(C)C [Example 18, N-[2,6-bis(1-methylethyl)phenyl]-N'-[(diethylamino)sulfonyl]urea] the change in vivo at 30 mg/kg was -19%. In the case of CCCCCCCCN(C)S(=O)(=O)NC(=O)Nc1c(C(C)C)cccc1C(C)C [Example 19, N-[2,6-bis(1-methylethyl)phenyl]-N'-[(methyloctylamino)sulfonyl]urea], the change in vivo at 30 mg/kg is reported as -59%. CC(C)c1cccc(C(C)C)c1NC(=O)NS(=O)(=O)N(C)CCc1ccccc1 [Example 20, N-[2,6-bis(1-methylethyl)phenyl]-N'-[[methyl(2-phenylethyl)amino]sulfonyl]urea] was tested, and the change in vivo at 30 mg/kg was -71%. Compound CC(C)c1cccc(C(C)C)c1NC(=O)NS(=O)(=O)N(C(C)C)C1CCCCC1 [Example 21, N-[2,6-bis(1-methylethyl)phenyl]-N'[[cyclohexyl(1-methylethyl)amino]sulfonyl]urea] has a change in vivo at 30 mg/kg of -68%. Compound CCCCCN(CCCCC)S(=O)(=O)NC(=O)Nc1c(C(C)C)cccc1C(C)C [Example 22, N-[2,6-bis(1-methylethyl)phenyl]-N'-[(dipentylamino)sulfonyl]urea] has a change in vivo at 30 mg/kg of -76%. CC(C)CN(CC(C)C)S(=O)(=O)NC(=O)Nc1c(C(C)C)cccc1C(C)C [Example 23, N-[2,6-bis(1-methylethyl)phenyl]-N'-[[bis(2-methylpropyl)amino]sulfonyl]urea] gave a change in vivo at 30 mg/kg of -75%. Compound C=CCN(CC)S(=O)(=O)NC(=O)Nc1c(C(C)C)cccc1C(C)C [Example 24, N-[2,6-bis(1-methylethyl)phenyl]-N'-[[ethyl(2-propenyl)amino]sulfonyl]urea] has a change in vivo at 30 mg/kg of -48%. Work on CC(C)CCN(CCC(C)C)S(=O)(=O)NC(=O)Nc1c(C(C)C)cccc1C(C)C [Example 25, N-[[bis(3-methylbutyl)amino]sulfonyl]-N'-[2,6-bis(1-methylethyl)phenyl] urea] yielded a change in vivo at 30 mg/kg of -60%. CCCCCCCCCCN(CCCCCCCCCC)S(=O)(=O)NC(=O)Nc1c(C(C)C)cccc1C(C)C [Example 26, N-[2,6-bis(1-methylethyl)phenyl]-N'-[(didecylamino)sulfonyl]urea] showed a change in vivo at 30 mg/kg of -57%. With CCCCCCCCCCCCN(CCCCCCCCCCCC)S(=O)(=O)NC(=O)Nc1c(C(C)C)cccc1C(C)C [Example 27] the change in vivo at 30 mg/kg was 5%. For CC(C)c1cccc(C(C)C)c1NC(=O)NS(=O)(=O)N(C1CCCCC1)C1CCCCC1 [Example 29, N-[2,6-bis(1-methylethyl)phenyl]-N'-[(dicyclohexylamino)sulfonyl]urea], the change in vivo at 30 mg/kg was -64%. In the case of CCCCN(C)S(=O)(=O)NC(=O)Nc1c(C(C)C)cccc1C(C)C [Example 30, N-[2,6-bis(1-methylethyl)phenyl]-N'-[(butylmethylamino)sulfonyl]urea], the change in vivo at 30 mg/kg is reported as -56%. CCCCCCCCCCCCCCCCCCN(C)S(=O)(=O)NC(=O)Nc1c(C(C)C)cccc1C(C)C [Example 31, N-[2,6-bis(1-methylethyl)phenyl]-N'-[(methyloctadecylamino)sulfonyl]urea] showed a change in vivo at 30 mg/kg of -60%. CC(C)NS(=O)(=O)NC(=O)Nc1c(C(C)C)cccc1C(C)C [Example 32, N-[2,6-bis(1-methylethyl)phenyl]-N'-[[(1-methylethyl)amino]sulfonyl]urea] gave a change in vivo at 30 mg/kg of -17%. C=CCN(CC=C)S(=O)(=O)NC(=O)Nc1c(C(C)C)cccc1C(C)C [Example 33, N-[2,6-bis(1-methylethyl)phenyl]-N'-[(di-2-propenylamino)sulfonyl]urea] was tested, and the change in vivo at 30 mg/kg was -67%. For CCCCN(CC)S(=O)(=O)NC(=O)Nc1c(C(C)C)cccc1C(C)C [Example 34, N-[2,6-bis(1-methylethyl)phenyl]-N'-[(butylethylamino)sulfonyl]urea], the change in vivo at 30 mg/kg was -70%. With CC(C)c1cccc(C(C)C)c1NC(=O)NS(=O)(=O)N(C(C)C)C(C)(C)C [Example 35, N-[2,6-bis(1-methylethyl)phenyl]-N'-[[(1,1-dimethylethyl)(1-methylethyl)amino]sulfonyl]urea] the change in vivo at 30 mg/kg was -71%. In the case of CCC(C)N(C(C)CC)S(=O)(=O)NC(=O)Nc1c(C(C)C)cccc1C(C)C (centres unmarked) [Example 36, N-[2,6-bis(1-methylethyl)phenyl]-N'-[[bis(1-methylpropyl)amino]sulfonyl]urea], the change in vivo at 30 mg/kg is reported as -71%. CCCCCCCCCCCCCCN(C)S(=O)(=O)NC(=O)Nc1c(C(C)C)cccc1C(C)C [Example 37, N-[2,6-bis(l-methylethyl)phenyl]-N'-[(methyltetradecylamino)sulfonyl]urea] showed a change in vivo at 30 mg/kg of -65%. CC(C)c1cccc(C(C)C)c1NC(=O)NS(=O)(=O)N1CCCC1 [Example 38, Urea, N-[2,6-bis(1-methylethyl)phenyl]-N'-(1-pyrrolidinylsulfonyl)] gave a change in vivo at 30 mg/kg of -49%. CC(C)c1cccc(C(C)C)c1NC(=O)NS(=O)(=O)N1CCCCC1 [Example 39, Urea, N-[2,6 bis(1-methylethyl)phenyl]-N'-(1-piperidinylsulfonyl)] showed a change in vivo at 30 mg/kg of -13%. For CC(C)c1cccc(C(C)C)c1NS(=O)(=O)NC(=O)N(Cc1ccccc1)Cc1ccccc1 [Example 42, N,-[[[2,6-bis(1-methylethyl)phenyl]amino]sulfonyl]-N,N-bis(phenylmethyl) urea], the change in vivo at 30 mg/kg was -44%.
